Laboratory results taken from patent US20030232743A1, “Compositions and methods for darkening the skin” (priority 2002, published 2003).

Test system: Type IV pigmented epidermal equivalents (SkinEthic reconstructed human epidermis; normal human keratinocytes and melanocytes)
Experiment: Darkening in pigmented epidermal equivalents (DOPA and Fontana-Mason staining)
Assay type: cell-based
Set-up: key to Score DOPA staining (tyrosinase activity): 0: No change in DOPA staining and in melanin deposition; 1: Minimal increase in DOPA staining and/ or in pigment deposition; 2: Increased DOPA staining and/ or in pigment deposition; 3: Strong increase in DOPA staining and/ or in pigment deposition
Details: for Score F & M staining (Pigment deposition) / Score DOPA staining (tyrosinase activity): peptides at 100 μM in PBS, treated three or five days, harvested fourth or sixth day; for Score F & M staining (Pigment deposition): sectioned equivalents F&M stained; for Score DOPA staining (tyrosinase activity): whole equivalents DOPA stained; for Overall change of pigmentation (darkening), in words: peptides at 100 μM, compared with UVB irradiation (0.10 J/cm^2)
Method: Peptide 1 and Peptide 2 were tested for their ability to induce darkening in pigmented epidermal equivalents. The pigmented epidermal equivalents contain human normal melanocytes, together with normal, human-derived epidermal keratinocytes, which have been cultured to form a multi-layered, highly differentiated model of the human epidermis. Type IV pigmented epidermal equivalents (consists of normal human keratinocytes pooled from variety of phototype skins and normal human melanocytes derived from type IV phototype skin) were treated with test compounds for three or five days and samples were harvested on the fourth or sixth day of the study. The harvested equivalents were stained with DOPA (a substrate for tyrosinase) or with Fontana-Mason (F&M) (Sheenan D C, Hrapckak B B, eds: Theory and practice of Histo-Thchnology (St Louis: C V Mosby, 1980) pp 223-277). F&M staining identifies silver nitrate reducing activity, which, in skin, identifies melanin.
The Epidermal equivalents used were SkinEthic® reconstructed human epidermis from SkinEthic™ Laboratory (Nice, France). UV irradiation was performed with a UVB FS light source in an exposure chamber, with plate covers removed and Phosphate—buffered saline (PBS, from Gibco-BRL, Gaithersburg, Md.) present in the lower chamber. UVB intensity was measured with a UVX radiometer (UVP Inc., San Gabriel, Calif.). Equivalents were treated with 0.1-0.12 J/cm2. […] The peptides were assayed at 100 μM, and were dissolved in PBS.
On the fourth or sixth day of the study, the equivalents were fixed, sectioned and F&M stained, or they were DOPA stained as whole without sectioning, using standard techniques. Images of stained whole or sectioned equivalents were obtained and analyzed with Image Pro Plus 3.0 software (Media Cybernetics, Silver Spring, Md.). Parameters measured were surface area of stained material within melanocyte and keratinocyte and the total surface area of the cells in culture. In all experiments there was no difference between PBS-treated cells and untreated controls. At least three sections per equivalent, three equivalents per experiment were processed. DOPA-stained epidermal equivalents were evaluated for the change in tyrosinase activity. F&M-stained histological sections were evaluated for the change in pigment deposition. Due to the low content of melanin within the equivalent, it was not possible to quantify the level of pigment within melanocytes in F&M stained sections by image analysis. Therefore, we evaluate the pigment change using the scale defined in Table 1.

Score DOPA staining (tyrosinase activity)	SMILES	Score F & M staining (Pigment deposition)	Overall change of pigmentation (darkening), in words
1-2	CC(C)C[C@H](NC(=O)[C@H](CCCN/C(N)=N/[N+](=O)[O-])NCc1ccc(OC(F)(F)F)cc1)C(N)=O [Peptide 2]	1-2	able to enhance pigment production
3	COc1ccc(CN[C@@H](CCCN/C(N)=N/[N+](=O)[O-])C(=O)N[C@@H](CC(C)C)C(N)=O)cc1 [Peptide 1]	1-2	darkening levels similar to those produced by UVB irradiation
